Data published in patent US20220106564A1, “COMPOSITION AND KIT FOR DIFFERENTIATION OF STEM CELLS INTO NEURAL CREST STEM CELLS, INCLUDING INHIBITOR OF TGF-BETA I RECEPTOR AND BMP INHIBITOR, AND METHOD USING SAME” (CHA UNIVERSITY INDUSTRY-ACADEMIC COOPERATION FOUNDATION, priority 2019, published 2022).

Legend:
[1] = system: H9 human embryonic stem cells (hESCs); test: Embryoid body count after suspension culture of H9 hESCs; assay type: cell-based; details: increasing concentrations of DMH1 in EB medium with 10 μM SB431542; suspension culture about 4 days; p<0.001
Description: Colonies obtained by culturing H9 human embryonic stem cells (hESCs) (WiCell Research Institute, Inc. Madison, Wis., U.S.A.) in a culture medium were dissociated into single cells using accutase (Life Technologies). The cells dissociated into single cells were seeded in a culture plate coated with a protein such as vitronectin (VTN) (vitronectin XF, STEMCELL Technologies), […]-521, Thermo Fisher Scientific Inc., Waltham, Mass., USA), fibronectin (Thermo Fisher Scientific Inc.), or MatrigelTM (StemCell Technologies, Inc.). An embryonic stem cell (ESC) culture medium was added to the seeded cells to perform undifferentiation culture. As the ESC culture medium, Essential 8 (E8) medium (StemCell Technologies Inc.), TeSR2 medium (StemCell Technologies Inc), StemMACS (Miltenyi Biotec, Bergisch Gladbach, Germany), etc. was used. […] The number of round-shaped embryoid bodies were counted, and the number of embryoid bodies per unit area (embryoid body/cm^2) according to DMH1 concentrations is shown in FIG. 1D (***: p<0.001).

[2] = system: H9 human embryonic stem cells (hESCs); test: Flow cytometry for P75 (neural crest stem cell marker) in cultured cells; assay type: cell-based; details: suspension about 3 days + adherent about 4 days (FIG. 3E)
Description: The obtained colonies were finely chopped and suspension-cultured under conditions of 37° C. and 5% CO2 in an EB medium containing 10 μM of SB431542 (GlaxoSmithKline: GSK) as a TGF-β I receptor inhibitor and 0.5 μM to 1 μM of dorsomorphin homolog 1 (DMH1) (Tocris Bioscience, USA) or dorsomorphin (Tocris Bioscience, […]). EB medium contained DMEM/F12 (Life Technologies), 20%(v/v) Knockout serum replacement (KSR, Invitrogen), lx non-essential amino acids (Invitrogen), 0.1 mM 13-mercaptoethanol (Invitrogen), and lx penicillin/streptomycin (Invitrogen). As a negative control, dimethyl sulfoxide (DMSO) (Sigma-Aldrich) was used instead of the drug. […] To analyze a proportion of cells expressing P75 protein which is a neural crest stem cell (NCSC) marker, or SOX1 which is a neural progenitor cell (NPC) marker, immunostaining was performed using phycoerythrin (PE)-labeled anti-P75 monoclonal antibody (1:50 dilution) (Miltenyi Biotec), and phycoerythrin (PE)-labeled anti-Sox1 monoclonal antibody (1:100 dilution) (BD Biosciences). The immunostained cells were subjected to flow cytometry using a BD FACSCalibur flow cytometer (BD Biosciences, Sparks, Md., USA). The results of flow cytometry are shown in FIGS. 2A and 2B (FIG. 2A: a graph of P75 flow cytometry, FIG. 2B: a graph of SOX1 flow cytometry). Cells suspension-cultured for about 3 days and adherent-cultured for about 4 days were subjected to P75 flow cytometry, as described in Example 1.2, and the results of flow cytometry are shown in FIG. 3E (upper: SB431542 and DMH1, lower: SB431542 and dorsomorphin).

Compound | number of embryoid bodies per unit area [1] | proportion of P75-expressing cells ([2]; 0.5 μM to 1 μM DMH1 + 10 μM SB431542) [%] | proportion of P75-expressing cells ([2]; 2.5 μM DMH1 + 10 μM SB431542) | proportion of P75-expressing cells ([2]; 0.5 μM BMP inhibitor in EB medium containing 10 μM SB431542 and dorsomorphin) [%]
CC(C)Oc1ccc(-c2cnc3c(-c4ccnc5ccccc45)cnn3c2)cc1 [DMH1, 4-[6-[4-(1-Methylethoxy)phenyl]pyrazolo[1,5-a]pyrimidin-3-yl]-quinoline] | significantly decreased | ≥ 69.8 | about 28.9% | 
c1cc(-c2cnn3cc(-c4ccc(OCCN5CCCCC5)cc4)cnc23)ccn1 [dorsomorphin, 6-[4-[2-(1-Piperidinyl)pethoxy]phenyl]-3-(4-pyridinyl)-pyrazolo[1,5-a]pyrimidine] |  |  |  | ≥ 83.2
